From US11802259B2, “Process of reducing malodors on fabrics” (The Procter & Gamble Company, priority 2019, dated 2023)

Test: Malodor Reduction Test Method (wash of body soil malodor test fabrics, SPME GC-MS of oxidation markers)
Settings: antioxidant at 0.035 wt % in detergent
Procedure: The following method is used to test the malodor reduction benefits of a composition.
Fatty acids and malodor markers are added into 100 ml glass gar with Teflon-lined cap according to Table A and mixed well using a vortex.
Provided the specified amount of each material according to Table B into a 200 mL glass jar with Teflon lined cap. Artificial body soil (ABS) is commercially available by Accurate Product Development; 2028 Bohlke Blvd, Fairfield, Ohio 45014.
Sixteen malodor test fabrics per wash load are prepared by applying 300 μl of Body soil malodor composition described in Table B to de-sized 2×5 inch white polycotton 50/50 (PCW50/50) swatches. 48 grams of liquid detergent to be tested (see, e.g., Example 1, Table 1, below) is added to Duet 9200 washing appliance set to Normal cycle; 77° F. wash cycle followed by a 60° F. rinse cycle. […]
The malodor reduction using ABS/Squalene malodor sensors are quantitatively determined by Gas Chromatography Mass Spectroscopy using an Agilent gas chromatograph 7890B equipped with a mass selective detector (5977B), a Chemstation quantitation package and a Gerstel multi-purpose sampler equipped with a solid phase micro-extraction (SPME) probe. […] Based on the partition coefficients (K at 80 C) of each component, the total nMol/L liter of 6-Methyl-5-hepten-2-one (K=3353), Trans-2-heptenal (K=3434), and 3-methyl-2-Butenal (K=1119) are calculated. […]

In the case of `Cc1c(C)c2c(c(C)c1O)CCC(C)(C(=O)O)O2` (stereo not shown) [Antioxidant 7, 3,4-dihydro-6-hydroxy-2,5,7,8-tetramethyl-2H-1-Benzopyran-2-carboxylic acid], the “malodor reduction benefits (reduction in total oxidation markers)” value is reported as “did not provide benefits”.
